Among the test systems are Escherichia coli BL21; Pseudomonas aeruginosa; Bacillus pumilus; Bacillus cereus; Shigella dysenteriae; Candida parapsilosis; Bacillus subtilis DELTA; Bacillus subtilis; Proteus vulgaris; Streptococcus pyogenes; Escherichia coli; Salmonella typhimurium.
Assay in all cases: ≥ marks a high value that may be exact or a test limit, other limits are often not marked, values filed in µg/mL are converted to µM
The test system of assay [1] is Streptococcus pyogenes M1T1 5448.
For assay [2], the system named is Pseudomonas aeruginosa PAO1.
Assay [3] concerns Staphylococcus aureus ATCC 2592.
Assay [4] has as its system Candida albicans ATCC 2002.
For assay [5], the system named is Acinetobacter calcoaceticus.
Assay [6] concerns Escherichia coli ATCC 25922.
Assay [7] has as its system Escherichia coli DH5alpha.
The test system of assay [8] is Zymomonas mobilis ATCC 10988.
For assay [9], the system named is Escherichia coli NEB5alpha.
Assay [10] deals with Bacillus subtilis ATCC 6051.
In assay [11] the test system is Escherichia coli IFO 3301.
Assay [12] has as its system Bacillus subtilis IFO 3336.
The subject of assay [13] is Staphylococcus epidermidis.

≈ marks a conversion by molar mass, not a printed value. Where only a bound is given, the exact number is not on record here.

In general, MIC refers to the least concentration at which growth counts as inhibited.

For `CC[C@H](C)[C@H](NC(=O)[C@H](Cc1ccccc1)NC(=O)[C@H](C)NC(=O)[C@H](CCCCN)NC(=O)[C@H](CCCCN)NC(=O)[C@H](Cc1c[nH]c2ccccc12)NC(=O)[C@H](CCCN=C(N)N)NC(=O)[C@H](CCCCN)NC(=O)[C@H](CCCN=C(N)N)NC(=O)[C@H](CC(C)C)NC(=O)[C@H](CCC(=O)O)NC(=O)[C@H](CCC(=O)O)NC(=O)[C@H](CC(C)C)NC(=O)[C@H](CC(C)C)NC(=O)[C@H](Cc1ccc(O)cc1)NC(=O)[C@H](CCCCN)NC(=O)[C@@H](NC(=O)[C@H](CC(C)C)NC(=O)[C@H](C)NC(=O)[C@H](CCC(N)=O)NC(=O)[C@H](CCCN=C(N)N)NC(=O)CNC(=O)[C@H](C)N)[C@@H](C)O)C(=O)N[C@@H](C)C(=O)N[C@@H](Cc1c[nH]c2ccccc12)C(=O)O` [AGRQALTKYLLEELRKRWKKAFIAW], the MIC in assay [1] stood at 2 µM (≈ 6.15 µg/mL); against Escherichia coli BL21, 1 µM (≈ 3.08 µg/mL); in [2] it was 64 µM (≈ 197 µg/mL).
On to `CC[C@H](C)[C@H](NC(=O)[C@@H]1CCCN1C(=O)[C@H](Cc1ccccc1)NC(=O)[C@@H](N)Cc1ccccc1)C(=O)N[C@H](C(=O)NCC(=O)N[C@@H](CCCCN)C(=O)N[C@@H](CC(C)C)C(=O)N[C@@H](CC(C)C)C(=O)N[C@@H](Cc1ccccc1)C(=O)NCC(=O)N[C@@H](CC(C)C)C(=O)N[C@@H](Cc1ccccc1)C(=O)NCC(=O)N[C@@H](CC(C)C)C(=O)N[C@@H](CC(C)C)C(N)=O)C(C)C` [FFPIVGKLLFGLFGLL], for which the MIC with Pseudomonas aeruginosa is 4.21 µM (≈ 7.5 µg/mL); in assay [3], 1.4 µM (≈ 2.5 µg/mL); in assay [4], 0.702 µM (≈ 1.25 µg/mL); with Bacillus pumilus, 1.4 µM (≈ 2.5 µg/mL); in assay [5] it was 16.8 µM (≈ 30 µg/mL); in [6], 2.81 µM (≈ 5 µg/mL). The MIC is 16.8 µM (≈ 30 µg/mL) in the assay on Bacillus cereus and 5.61 µM (≈ 9.99 µg/mL) with Shigella dysenteriae.
Regarding `CC[C@H](C)[C@H](NC(=O)[C@@H]1CCCN1C(=O)[C@H](CC(C)C)NC(=O)[C@@H](N)Cc1ccccc1)C(=O)N[C@H](C(=O)NCC(=O)N[C@@H](CCCCN)C(=O)N[C@@H](CC(C)C)C(=O)N[C@@H](CC(C)C)C(=O)N[C@@H](CO)C(=O)NCC(=O)N[C@@H](CC(C)C)C(=O)N[C@@H](CO)C(=O)NCC(=O)N[C@@H](CC(C)C)C(=O)N[C@@H](CO)C(N)=O)C(C)C` [FLPIVGKLLSGLSGLS], the MIC with Pseudomonas aeruginosa was 1.56 µM (≈ 2.5 µg/mL); in assay [3], 1.56 µM (≈ 2.5 µg/mL); in [4] it was 1.56 µM (≈ 2.5 µg/mL); with Bacillus pumilus, 4.68 µM (≈ 7.5 µg/mL); in assay [5], not below 37.5 µM; in assay [6], 3.12 µM (≈ 5 µg/mL). Also, the values for the MIC in the assay on Bacillus cereus and with Shigella dysenteriae were not below 46.8 µM and 12.5 µM (≈ 20 µg/mL), respectively.
Take `CC[C@H](C)[C@H](NC(=O)[C@H](Cc1ccccc1)NC(=O)[C@H](CCCCN)NC(=O)[C@H](CC(C)C)NC(=O)[C@H](CC(C)C)NC(=O)CN)C(=O)N[C@@H](CCCCN)C(=O)N[C@@H](CCCN=C(N)N)C(=O)N[C@@H](CC(C)C)C(=O)N[C@@H](CC(C)C)C(N)=O` [GLLKFIKRLL]: the MIC against Candida parapsilosis was 8.33 µM (≈ 9.99 µg/mL); in the assay with Bacillus subtilis DELTA, not below 167 µM; in assay [7], not below 167 µM; in assay [2], 2.5 µM (≈ 3 µg/mL); in assay [8] it was 4.16 µM (≈ 5 µg/mL).
As for `CC[C@H](C)[C@H](NC(=O)[C@H](CCCCN)NC(=O)[C@H](CC(C)C)NC(=O)[C@H](CC(C)C)NC(=O)CN)C(=O)N[C@H](C(=O)N[C@@H](CCCCN)C(=O)N[C@@H](CCCN=C(N)N)C(=O)N[C@@H](CC(C)C)C(=O)N[C@@H](CC(C)C)C(N)=O)[C@@H](C)CC` [GLLKIIKRLL], the MIC in the assay on Candida parapsilosis was 12.9 µM (≈ 15 µg/mL); against Bacillus subtilis DELTA, 8.57 µM (≈ 9.99 µg/mL); in assay [7], not below 171 µM; in assay [2] it was 2.57 µM (≈ 3 µg/mL); in [8], 4.29 µM (≈ 5 µg/mL).
For the molecule `CC[C@H](C)[C@H](NC(=O)[C@H](C)NC(=O)CNC(=O)[C@H](CCCCN)NC(=O)[C@H](CCC(=O)O)NC(=O)[C@H](CCC(=O)O)NC(=O)[C@H](CC(=O)O)NC(=O)[C@H](CCC(=O)O)NC(=O)[C@H](CC(N)=O)NC(=O)[C@H](CCCN=C(N)N)NC(=O)CNC(=O)[C@H](CCC(N)=O)NC(=O)[C@H](CC(C)C)NC(=O)[C@@H](N)CCCCN)C(=O)N[C@H](C(=O)N[C@@H](CCCCN)C(=O)N[C@H](C(=O)N[C@@H](CCCCN)C(=O)O)C(C)C)C(C)C` [KLQGRNEDEEKGAIVKVK], the MIC in [9] and in [10] was not below 1000 µM throughout.
On to `CC[C@H](C)[C@H](NC(=O)[C@H](C)NC(=O)[C@H](C)NC(=O)[C@H](CCCN=C(N)N)NC(=O)[C@H](CC(=O)O)NC(=O)[C@H](CC(N)=O)NC(=O)[C@@H](NC(=O)[C@@H](N)CCCCN)[C@@H](C)O)C(=O)NCC(=O)N[C@@H](CCCCN)C(=O)N[C@@H](CC(C)C)C(=O)N[C@H](C(=O)NCC(=O)N[C@@H](C)C(=O)N[C@H](C(=O)N[C@@H](CO)C(=O)N[C@@H](CO)C(=O)N[C@@H](CC(C)C)C(=O)O)[C@@H](C)O)C(C)C` [KTNDRAAIGKLVGATSSL], for which the MIC in assay [9] is not below 1000 µM.
As to `NC(N)=NCCC[C@H](NC(=O)[C@H](Cc1cnc[nH]1)NC(=O)[C@H](CCCN=C(N)N)NC(=O)[C@H](Cc1cnc[nH]1)NC(=O)[C@H](CCCN=C(N)N)NC(=O)[C@H](Cc1cnc[nH]1)NC(=O)[C@H](CCCN=C(N)N)NC(=O)[C@H](Cc1cnc[nH]1)NC(=O)[C@H](CCCN=C(N)N)NC(=O)[C@H](Cc1cnc[nH]1)NC(=O)[C@@H](N)CCCN=C(N)N)C(=O)N[C@@H](Cc1cnc[nH]1)C(=O)O` [RHRHRHRHRHRH], the MIC in assay [11] and in assay [12] was 5.62 µM (≈ 10 µg/mL) in each case.
Consider `NC(N)=NCCC[C@H](NC(=O)[C@H](Cc1cnc[nH]1)NC(=O)[C@@H](N)CCCN=C(N)N)C(=O)N[C@@H](Cc1cnc[nH]1)C(=O)O` [RHRH], for which the MIC in assay [11] and in [12] was not below 827 µM in each case.
Turning to `CC[C@H](C)[C@H](NC(=O)[C@H](Cc1ccc(O)cc1)NC(=O)[C@@H](NC(=O)[C@@H]1CCCN1C(=O)[C@H](CCCN=C(N)N)NC(=O)[C@H](CC(N)=O)NC(=O)[C@H](CC(N)=O)NC(=O)CNC(=O)[C@@H]1CCCN1C(=O)[C@H](CCC(=O)O)NC(=O)[C@H](C)NC(=O)[C@H](CCC(=O)O)NC(=O)[C@@H]1CCCN1C(=O)[C@H](CCC(=O)O)NC(=O)[C@H](C)NC(=O)[C@H](CCC(=O)O)NC(=O)[C@H](CCCN=C(N)N)NC(=O)[C@@H](N)CCCN=C(N)N)C(C)C)C(=O)N1CCC[C@H]1C(=O)N[C@@H](CCC(N)=O)C(=O)N1CCC[C@H]1C(=O)N[C@@H](CCCN=C(N)N)C(=O)N1CCC[C@H]1C(=O)N1CCC[C@H]1C(=O)N[C@@H](Cc1cnc[nH]1)C(=O)N1CCC[C@H]1C(=O)N[C@@H](CCCN=C(N)N)C(=O)N[C@@H](CC(C)C)C(=O)O` [RREAEPEAEPGNNRPVYIPQPRPPHPRL], the MIC with Bacillus subtilis is not below 64 µM; in the assay on Proteus vulgaris, not below 64 µM; with Pseudomonas aeruginosa it was 64 µM (≈ 210 µg/mL); against Streptococcus pyogenes, not below 64 µM; against Escherichia coli, 64 µM (≈ 210 µg/mL); against Salmonella typhimurium it was 2 µM (≈ 6.55 µg/mL). Also, the MIC in assay [13] was not below 64 µM.

The record behind these values is DBAASP.
